In ChEMBL document CHEMBL5209580, “Flow cytometry transport assay for SLC2A3 using HEK293 JumpIN TRex SLC2A3 WT-OE cells” (2022):

Biological target: T1, Solute carrier family 2, facilitated glucose transporter member 3 (Homo sapiens, UniProt P11169)
T1 sequence (P11169 whole entry): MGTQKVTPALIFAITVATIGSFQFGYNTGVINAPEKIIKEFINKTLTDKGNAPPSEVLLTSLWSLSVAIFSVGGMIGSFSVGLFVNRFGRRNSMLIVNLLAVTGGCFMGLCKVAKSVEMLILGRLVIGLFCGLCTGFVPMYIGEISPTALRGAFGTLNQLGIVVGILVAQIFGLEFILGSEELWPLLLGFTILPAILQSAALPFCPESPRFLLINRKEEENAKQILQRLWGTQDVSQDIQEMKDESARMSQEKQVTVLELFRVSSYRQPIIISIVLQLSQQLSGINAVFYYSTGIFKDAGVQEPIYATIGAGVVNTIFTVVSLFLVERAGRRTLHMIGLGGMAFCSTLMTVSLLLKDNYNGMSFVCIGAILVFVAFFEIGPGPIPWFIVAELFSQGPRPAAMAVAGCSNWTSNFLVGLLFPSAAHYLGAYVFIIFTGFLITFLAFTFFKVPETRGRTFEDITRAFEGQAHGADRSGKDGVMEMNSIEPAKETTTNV
Test: Inhibition of the Glucose Transporter (GLUT3, SLC2A3) as assessed by a FRET based flow cytometry assay using a genetically-encoded biosensor for measuring free glucose (FLII12Pglu-700uDelta6) in HEK293 JumpIN TRex SLC2A3 WT-OE cells (PubChem AID: 1794827)
Type: functional, cell-based

IC50: > 10 µM
SMILES: O=C(Oc1cccc(F)c1OC(=O)c1cccc(O)c1)c1cccc(O)c1
